Source: ChEMBL document CHEMBL5532682, “Recent advances of tryptanthrin and its derivatives as potential anticancer agents” (RSC Med Chem, 2024)

Assays:
HT-29 = test: Antiproliferative activity against human HT-29 cells; type: functional, cell-based
PANC-1 = test: Antiproliferative activity against human PANC-1 cells; type: functional, cell-based
MDA-MB-231 [1] = test: Antiproliferative activity against human MDA-MB-231 cells; type: functional, cell-based
[2] = Cytotoxicity activity against human HDF cells; type: toxicity, cell-based; conditions: HDF cells (NHDF)
A549 [3] = test: Antiproliferative activity against human A549 cells measured after 48 hrs; type: functional, cell-based; conditions: A549, 48 h
HCT-116 [4] = test: Antiproliferative activity against human HCT-116 cells measured after 48 hrs; type: functional, cell-based; conditions: HCT-116, 48 h
MDA-MB-231 [5] = test: Antiproliferative activity against human MDA-MB-231 cells measured after 48 hrs; type: functional, cell-based; conditions: MDA-MB-231, 48 h
A549 [6] = test: Antiproliferative activity against human A549 cells measured after 48 hrs by MTT assay; type: functional, cell-based; conditions: A549, 48 h
HCT-116 [7] = test: Antiproliferative activity against human HCT-116 cells measured after 48 hrs by MTT assay; type: functional, cell-based; conditions: HCT-116, 48 h
MDA-MB-231 [8] = test: Antiproliferative activity against human MDA-MB-231 cells measured after 48 hrs by MTT assay; type: functional, cell-based; conditions: MDA-MB-231, 48 h
[9] = Antiproliferative activity against mouse MC3T3-E1 cells; type: toxicity, cell-based
A549 [10] = test: Antiproliferative activity against human A549 cells; type: functional, cell-based
MCF7 = test: Antiproliferative activity against human MCF7 cells assessed as inhibition of cell growth; type: functional, cell-based
A549 [11] = test: Antiproliferative activity against human A549 cells assessed as inhibition of cell growth; type: functional, cell-based
HeLa = test: Antiproliferative activity against human HeLa cells assessed as inhibition of cell growth; type: functional, cell-based

Cc1nn(Cl)c2c1[C@@]1(C(C#N)=CO2)c2cc(-c3cccc(Cl)c3)ccc2-n2c1nc1ccccc1c2=O
IC50 (HT-29): > 100 µM | IC50 (PANC-1): 60.6 µM | IC50 (MDA-MB-231 [1]): 92.8 µM | IC50 [2]: > 100 µM

CCN(CC)c1cc2c(cc1Cl)C(=O)c1nc3ccccc3c(=O)n1-2
IC50 (A549 [3]): 1.48 µM | IC50 (HCT-116 [4]): 1.29 µM | IC50 (MDA-MB-231 [5]): 1.78 µM

Cc1ccc2c(c1N1CCN(CCO)CC1)C(=O)c1nc3ccccc3c(=O)n1-2
IC50 (A549 [6]): > 100 µM | IC50 (HCT-116 [7]): > 100 µM | IC50 (MDA-MB-231 [8]): > 100 µM

O=C1c2c(ccc(F)c2Cl)-n2c1nc1ccc(F)c(Cl)c1c2=O
IC50 [9]: 68.3 µM | IC50 (A549 [10]): 0.51 µM

O=C1c2c(ccc(F)c2N2CCN(C(=O)c3ccco3)CC2)-n2c1nc1ccccc1c2=O
IC50 (A549 [6]): > 100 µM | IC50 (HCT-116 [7]): > 100 µM | IC50 (MDA-MB-231 [8]): > 100 µM | IC50 (A549 [3]): > 100 µM | IC50 (HCT-116 [4]): > 100 µM | IC50 (MDA-MB-231 [5]): > 100 µM

N#Cc1ccc(-c2cs/c(=N/N=C3/c4ccccc4-n4c3nc3ccccc3c4=O)n2-c2ccccc2)cc1
IC50 (MCF7): 44.4 µM | IC50 (A549 [11]): 28.8 µM | IC50 (HeLa): 43.8 µM

O=C1C2C=CC=CC2=NC2/C(=N\Nc3nc(-c4ccccc4)cs3)c3ccccc3N12 (stereo not drawn)
IC50 (MCF7): 40.5 µM | IC50 (A549 [11]): 52 µM | IC50 (HeLa): 46 µM

O=C1c2ccccc2-n2c1nc1cc(Cl)ccc1c2=O
IC50 [9]: > 100 µM | IC50 (A549 [10]): > 100 µM

O=c1c2ccccc2nc2n1-c1ccccc1/C2=N/N=c1/scc(-c2ccc(F)cc2)n1-c1ccccc1
IC50 (MCF7): 60.1 µM | IC50 (A549 [11]): 44.4 µM | IC50 (HeLa): 52 µM

COc1ccc(-c2cs/c(=N/N=C3/c4ccccc4-n4c3nc3ccccc3c4=O)n2-c2ccccc2)cc1
IC50 (MCF7): 52.3 µM | IC50 (A549 [11]): 63 µM | IC50 (HeLa): 40.2 µM

CN1CCN(c2c(F)ccc3c2C(=O)c2nc4ccccc4c(=O)n2-3)CC1
IC50 (A549 [6]): > 100 µM | IC50 (HCT-116 [7]): > 100 µM | IC50 (MDA-MB-231 [8]): > 100 µM

CCN(CC)c1c(Cl)ccc2c1C(=O)c1nc3ccccc3c(=O)n1-2
IC50 (A549 [6]): 1.48 µM | IC50 (HCT-116 [7]): 1.29 µM | IC50 (MDA-MB-231 [8]): 1.78 µM

O=C1c2cc(Cl)ccc2-n2c1nc1ccc(Cl)c(Cl)c1c2=O
IC50 [9]: > 100 µM | IC50 (A549 [10]): > 100 µM

O=C1c2c(ccc(F)c2Cl)-n2c1nc1cc(Cl)ccc1c2=O
IC50 [9]: 82 µM | IC50 (A549 [10]): 1.03 µM

O=C1c2c(ccc(F)c2N2CCOCC2)-n2c1nc1ccccc1c2=O
IC50 (A549 [6]): > 100 µM | IC50 (HCT-116 [7]): > 100 µM | IC50 (MDA-MB-231 [8]): > 100 µM | IC50 (A549 [3]): > 100 µM | IC50 (HCT-116 [4]): > 100 µM | IC50 (MDA-MB-231 [5]): > 100 µM

Cc1ccc2c(c1N1CCN(C)CC1)C(=O)c1nc3ccccc3c(=O)n1-2
IC50 (A549 [6]): 52.6 µM | IC50 (HCT-116 [7]): > 100 µM | IC50 (MDA-MB-231 [8]): > 100 µM

O=C1c2c(ccc(Cl)c2N2CCN(c3ccccn3)CC2)-n2c1nc1ccccc1c2=O
IC50 (A549 [6]): > 100 µM | IC50 (HCT-116 [7]): > 100 µM | IC50 (MDA-MB-231 [8]): > 100 µM

O=C1c2c(ccc(F)c2N2CCN(CCO)CC2)-n2c1nc1ccccc1c2=O
IC50 (A549 [6]): 41.4 µM | IC50 (HCT-116 [7]): > 100 µM | IC50 (MDA-MB-231 [8]): > 100 µM | IC50 (A549 [3]): 41.4 µM | IC50 (HCT-116 [4]): > 100 µM | IC50 (MDA-MB-231 [5]): > 100 µM

O=C1c2c(N3CCNCC3)cccc2-n2c1nc1ccccc1c2=O
IC50 (A549 [6]): > 100 µM | IC50 (HCT-116 [7]): > 100 µM | IC50 (MDA-MB-231 [8]): > 100 µM | IC50 (A549 [3]): 13.7 µM | IC50 (HCT-116 [4]): 90 µM | IC50 (MDA-MB-231 [5]): 56.1 µM

O=c1c2ccccc2nc2n1-c1ccccc1/C2=N/N=c1/scc(-c2ccccc2)n1-c1ccccc1
IC50 (MCF7): 50.2 µM | IC50 (A549 [11]): 51.6 µM | IC50 (HeLa): 56.6 µM

O=C1C2C=CC=CC2=NC2/C(=N\Nc3nc(-c4ccc([N+](=O)[O-])cc4)cs3)c3ccccc3N12 (stereo not drawn)
IC50 (MCF7): 59.1 µM | IC50 (A549 [11]): 49.1 µM | IC50 (HeLa): 67 µM

O=C1c2cc(Cl)ccc2-n2c1nc1ccc(F)c(Cl)c1c2=O
IC50 [9]: > 100 µM | IC50 (A549 [10]): > 100 µM

O=c1c2ccccc2nc2n1-c1ccccc1/C2=N/N=c1/scc(-c2ccc([N+](=O)[O-])cc2)n1-c1ccccc1
IC50 (MCF7): 43.1 µM | IC50 (A549 [11]): 52.8 µM | IC50 (HeLa): 67 µM

Cc1ccc2c(c1N1CCCCC1)C(=O)c1nc3ccccc3c(=O)n1-2
IC50 (A549 [6]): > 100 µM | IC50 (HCT-116 [7]): > 100 µM | IC50 (MDA-MB-231 [8]): > 100 µM

CCN(CC)c1c(F)ccc2c1C(=O)c1nc3ccccc3c(=O)n1-2
IC50 (A549 [6]): 1.2 µM | IC50 (HCT-116 [7]): 2.01 µM | IC50 (MDA-MB-231 [8]): 0.8 µM

O=c1c2ccccc2nc2n1-c1ccccc1/C2=N/N=c1/scc(-c2ccc(Cl)cc2)n1-c1ccccc1
IC50 (MCF7): 46.1 µM | IC50 (A549 [11]): 65.5 µM | IC50 (HeLa): 75.2 µM

O=C1c2c(ccc(F)c2N2CCN(c3ccccn3)CC2)-n2c1nc1ccccc1c2=O
IC50 (A549 [6]): > 100 µM | IC50 (HCT-116 [7]): > 100 µM | IC50 (MDA-MB-231 [8]): > 100 µM | IC50 (A549 [3]): > 100 µM | IC50 (HCT-116 [4]): > 100 µM | IC50 (MDA-MB-231 [5]): > 100 µM

CN(C)c1c(F)ccc2c1C(=O)c1nc3ccccc3c(=O)n1-2
IC50 (A549 [6]): > 100 µM | IC50 (HCT-116 [7]): > 100 µM | IC50 (MDA-MB-231 [8]): 89.7 µM

O=C1c2cc(F)ccc2-n2c1nc1ccc(F)c(Cl)c1c2=O
IC50 [9]: 89.7 µM | IC50 (A549 [10]): > 100 µM

CN(C)c1cccc2c1C(=O)c1nc3ccccc3c(=O)n1-2
IC50 (A549 [3]): > 100 µM | IC50 (HCT-116 [4]): > 100 µM | IC50 (MDA-MB-231 [5]): > 100 µM

Cc1ccc2c(c1N1CCN(c3ccccn3)CC1)C(=O)c1nc3ccccc3c(=O)n1-2
IC50 (A549 [6]): > 100 µM | IC50 (HCT-116 [7]): > 100 µM | IC50 (MDA-MB-231 [8]): > 100 µM
